Assay results reported in patent US20250339443A1, “METHOD FOR TREATING OR PREVENTING CALCIUM RELEASE-ACTIVATED CALCIUM CHANNEL OR DISCOIDIN DOMAIN RECEPTOR 2 RELATED DISORDERS OR CONDITIONS” (LumiSTAR Biotechnology, Inc., priority 2023, published 2025).

Assays:
NRK49F cells = test: Collagen alignment assay in FITC-conjugated collagen gel; assay type: cell-based, rat; details: 10 ng/ml TGF-β1, 10 μM, 5 days
Description: FIG. 2A, FIG. 2B, FIG. 2C, FIG. 2D, FIG. 2E, FIG. 2F, FIG. 2G-1, and FIG. 2G-2 display how WRG-28 and Av suppress TGF-β1-induced fibroblasts activation and the differentiation of pericytes into myofibroblasts. […] Each bar represents the mean #SEM. […] The protein levels of collagen 1a1 and α-SMA were assessed using Western blot analysis under various conditions. […] Each bar represents mean±SEM. […] The images were acquired using a confocal microscope (Olympus, MPE). FIG. 2G-1 and FIG. 2G-2 display the measurement of angles between collagen fibers and the cell membrane, conducted using Image J. At least five different images from each condition were analyzed. Each bar represents mean±SEM. In all graphs, *, **, and *** represent p-value <0.05, 0.01, and 0.001, respectively. ‘ns’ denotes p-value >0.05, indicating no significant difference.
FITC-conjugated collagen was used to make collagen gel and cells were grown in the gel for 5 days. After that cells were fixed with 4% paraformaldehyde and phalloidin-TRICT was used as counterstaining in the evaluation of the cell body. The angles between fibers and cell membrane were measured by image J.
The alignment of the extracellular matrix (ECM) is a unique characteristic of myofibroblasts, altering the physical properties of the tissue microenvironment and posing a threat to tissue homeostasis during organ fibrosis. […]

[1] = test system: human cardiac fibroblast (HCF); test: TGF-β1-induced activation of human cardiac fibroblasts (Western blot); assay type: cell-based; details: 10 μM co-treatment, 24 hours
Description: Cells were co-treated with various compounds (10 μM) and TGF-β1 for 24 hours. Following this, cell lysates were harvested, and the protein expression was assessed by Western blot analysis. FIG. 3D depicts the examination of TGF-β1-induced fibronectin deposition and α-SMA expression in HCF treated with 10 μM of DMSO, BTP2, WRG-28, or Av through immunofluorescence staining. The images were captured using a confocal microscope, the Olympus FV-1000. FIG. 3E, FIG. 3F, and FIG. 3G illustrate the assessment of CRAC channel activity in HCF, MRC5, and rat HSC-T6. These cells were pretreated with 10 μM of BTP2, WRG-28, or Av for 45 min. The evaluation included measuring the second peak of each calcium wave and the rate of entry. […]
Cell lysates were harvested in RIPA buffer (150 mM NaCl, 1 mM EGTA, 50 mM Tris pH 7.4, 10% glycerol, 1% Triton X-100, 1% sodium deoxycholate, 0.1% SDS, and protease inhibitor cocktail) and collected from culture dish with cell scrapers. […] The protein expression levels were assessed by specific primary antibodies, including antibodies against phosphotyrosine (clone 4G10; Millipore), DDR2 (R&D), α-SMA (Sigma), Collagen 1a1 (Boster), E-cadherin (BD Biosciences), SGLT2 (Proteintech), NHE1 (Novus) and β-actin (Clone C4, Millipore), followed by incubating with secondary antibodies conjugated with HRP and detected by ECL kit (Thermo Scientific). […]

SMILES	TGF-β1-induced collagen alignment (NRK49F cells)	upregulation of α-SMA induced by TGF-β1 [1]
Cc1nnsc1C(=O)Nc1ccc(-n2nc(C(F)(F)F)cc2C(F)(F)F)cc1 [BTP2]	reduced	suppressed
CCNS(=O)(=O)c1ccc(COc2ccc3nc4ccc(=O)cc-4oc3c2)cc1 [WRG-28]	reduced	suppressed
